From patent US11198680B2 (BioAxone BioSciences, Inc., priority 2016, dated 2021)
Like-named read-outs stand apart in the source and are kept apart here.

Experiments:
[1] = target: NET (norepinephrine transporter) (Homo sapiens (Human), UniProt P23975); details: Sturdivant et al., ibid.; cited from earlier work
[2] = target: SERT (serotonin transporter) (Homo sapiens (Human), UniProt P31645); details: Sturdivant et al., ibid.; cited from earlier work
[3] = system: Rho/ROCK activity (MLC2 diphosphorylation) in HUVECs; assay: LPA-treated HUVECs, pMLC2 T18/S19 immunoblot; format: cell-based, human; details: 1-100 μM 1 hr, 20 μM LPA 5 min
Procedure: (§1) Cell lines were exposed to each dose for 1 hr, and then are stimulated with 20 μM LPA for either 5 min or 1 hr as described below. All experiments were conducted in triplicate and analyzed by two independent assessors blinded to both cell line and treatment.
Cells were subjected to biochemical analysis of diphosphorylated MLC2 (Threonine 18/Serine 19 phosphorylation sites) and cofilin (Serine 9 phosphorylation site) using SDS-PAGE and immunoblotting. Cells were plated in 24-well tissue culture plates coated with 70 μg/ml rat collagen-1 (Corning; Corning, N.Y.), and grown for 2 d to 3 d at 37° C./5% CO2 until confluency. […] Then medium was exchanged for Medium 200 supplemented with 0.1% HSA (Sigma-Aldrich) and 20 μM of LPA (Santa Cruz Biotech; Santa Cruz, Calif.) and incubated for 5 min. After LPA stimulation, proteins were extracted from cells by lysis with RIPA buffer supplemented with HALT complete protease/phosphatase inhibitor (ThermoFisher, Waltham, Mass.), reduced and denatured using Laemmli sample buffer (BioRad, Hercules, Calif.)/beta-mercaptoethanol and subjected to SDS-PAGE.
Denatured samples were electrophoresed in reducing 10% Bis-Tris-gels polyacrylamide gels (Novex; Thermo-Fisher, Waltham, Mass.) and were transferred onto 0.25 μm PVDF membranes (EMD Millipore, Billerica, Mass.). Membranes are probed using amti-pMLC2 T18/S19 (1:500; Cell Signaling, Danvers, Mass.) or anti-pCofilin S9 (1:500, Cell Signaling, Danvers, Mass.) and anti-glyceraldehyde 3-phosphate dehydrogenase loading control (GAPDH, 1:10000; Abcam). Protein levels were detected using chemiluminescence substrate (Super Signal West, ThermoFisher, Waltham, Mass.) and images captured using a FluoroChem SP Imaging System.

[4] = system: Rho/ROCK activity (MLC2 diphosphorylation) in human brain microvascular endothelial cells; assay: LPA-treated hBMVECs, pMLC2 T18/S19 immunoblot; format: cell-based; details: 20 μM LPA, Example 16, present tense, no data shown
Procedure: (§2) Cells are exposed to each dose for 1 hr, and are then stimulated with 20 μM LPA for either 5 min or 1 hr as described below. All experiments are conducted in triplicate and analyzed by 2 independent assessors blinded to both cell line and treatment.
Cells are subjected to biochemical analysis of diphosphorylated MLC2 (Threonine 18/Serine 19 phosphorylation sites) and phosphorylated cofilin (Serine 9 phosphorylation site) using SDS-PAGE and immunoblotting. Cells are plated in 24-well tissue culture plates coated with 70 μg/ml rat collagen-1 (Corning) and grown in ENDO-growth media (Neuromics) for 3 days at 37° C./5% CO2 until confluency. […] The medium is exchanged for ENDO basal media supplemented with 1% HSA, 20 μM of LPA (Santa Cruz Biotech; Santa Cruz, Calif.) and the appropriate amount of compound being tested. After 5 min, the medium is aspirated and the cells are briefly washed with 1×PBS. Proteins are extracted from cells by lysis with RIPA buffer supplemented with complete protease/phosphatase inhibitor (HALT, Thermo Fisher Scientific), reduced and denatured using Laemmli sample buffer (BioRad; Hercules, Calif., beta-mercaptoethanol and subjected to SDS-PAGE.
Denatured samples are electrophoresed in reducing 10% Bis-Tris-PA gels (Novex; Thermo-Fisher), and are transferred onto 0.25 μm PVDF membranes (EMD Millipore). Membranes are probed using amti-pMLC2 T18/S19 (1:500; Cell Signaling) or anti-pCofilin (1:500, Cell Signaling S9) and anti-glyceraldehyde 3-phosphate dehydrogenase loading control (GAPDH, 1:10000; Abcam, Cambridge, Mass.). Protein levels are detected using a chemiluminescence substrate (Super Signal West, ThermoFisher) and images are captured using a FluoroChem SP Imaging System.

ROCK2 [5] = target: T1, ROCK2 (Homo sapiens (Human), UniProt O75116); assay: ROCK2 inhibition curves, MYPT1 substrate plate assay; format: biochemical; details: purified ROCK2, MYPT1 substrate
Procedure: Each compound was dissolved at 100 mM in DMSO. This compound-DMSO solution is diluted to 500 μM in dH2O. Serial dilutions were prepared so that a semi-log range of compound is present after being diluted 5× in other assay reagents, from 100 μM through 1 nM.
10 μL of each concentration of each compound was added in duplicate to individual wells of a 96-well Maxisorp plate (ThermoFisher) pre-coated with the ROCK2 substrate MYPT1 (ThermoFisher). dH2O is added as a negative control.
Using a multichannel pipettor, […] of final volume per well was made by the addition of the following of each solution to begin the reaction: 10 μL 20 mM MOPS pH 7.2, 25 mM β-glycerophosphate, 5 mM EGTA, 1 mM Na3VO4, and 1 mM DTT, 10 μL 50 μM ATP, 10 μL 75 mM MgCl2, and 10 μL 1 mU/μL ROCK2 solution. […]
100 μL TMB/E solution was added to each well with a multichannel pipette. Upon sufficient color development, the reaction was stopped using 100 μL stop solution and absorbance read using a Wallac Victor2 plate reader at 450 nm.
Because absorbance values proportional to ROCK2 activity, plotting absorbance at 450 nm versus final concentration of metabolite and parent compound provides inhibition curves. Relative inhibitory profiles were determined through 4PL analysis of these curves. Variations in calculated IC50 are common before assay optimization due to variations in experimental variables.

[6] = system: ROCK2 activation (phospho-cofilin); assay: Transient MCAO stroke model, phospho-cofilin Western blot left versus right brain; format: in vivo, mouse; details: 10 mg/kg I.P. within 30 min after MCAO, tissue 24 hr post MCAO
Procedure: The murine intraluminal monofilament model of middle cerebral artery occlusion (MCAO) is used on mice in this study. MCAO involves the insertion of a surgical filament into the external carotid artery and threading it forward into the internal carotid artery until the tip occludes the origin of the MCA, resulting in a cessation of blood flow and subsequent brain infarction in the MCA territory. The technique is used herein to model transient occlusion. If the filament is removed after 1 h, reperfusion is achieved (transient MCAO). This study determines the most efficacious dose and route of administration that reduce Rho-kinase 2 (ROCK2) activation following transient MCAO-induced stroke in mice. The pharmacodynamic response is also determined in this study.
Twenty-eight 9-wk old C57BL/6 (Charles River Laboratories) were used in this study. For surgery, the mouse was placed in a supine position on an infrared heating pad. The fur over the ventral neck was shaved and the skin was disinfected with 70% ethanol and povidone iodine. Under a stereo dissecting microscope, a 1 cm midline incision was made on the neck and retractors were used to expose the left common carotid artery (CCA), the external carotid artery (ECA) and the internal carotid artery (ICA). The arteries were carefully dissected to free them from surrounding nerves and fascia. The ECA was dissected further distally and two 8-0 silk sutures are tied around the ECA stump and a vascular clamp was applied at the bifurcation of the CCA into the ECA and ICA. A small incision was made at the end of ECA stump with Vannas-style spring scissors. A blunt 5-0 monofilament suture (Doccol) was inserted into the incision and advanced from the lumen of the ECA into the ICA for a distance of 9-10 mm beyond the bifurcation of CCA to occlude the origin of MCA. For the mouse model, a distance of 9 mm-11 mm rostral to the CCA bifurcation is inserted. After 60 min., the monofilament was removed. The incision was sutured with 4.0 prolene sutures. […] The mouse is allowed to recover on a heating pad until thermoregulation is re-established.
For Western blot analysis, mice were anesthetized using isoflurane and decapitated. […]
20 μL protease inhibitor (Halt, Protease, Fisher Scientific, Pittsburgh, Pa.) and 10 μL phosphatase inhibitor (Fisher Scientific) were added to 1 mL RIPA buffer (Santa Cruz Biotechnology, Dallas, Tex.). […] The protein concentration of each sample was determined using the DC Protein Assay Kit and following the manufacturer's instructions.
The left and right hemispheres of each brain were homogenized and prepared for Western blotting, and the signal of phospho-cofilin was measured quantitatively by densitometry compared to an internal standard, cyclophilin. […]

ROCK2 [7] = target: T1, ROCK2; assay: Direct filter-binding radiometric kinase assay, IC50 determination; format: biochemical
phospho-MLC2 (Ser19) = assay: Transient MCAO stroke model, phospho-MLC2 (Ser19) immunohistochemistry of insular cortex; format: in vivo, mouse; details: 10 mg/kg I.P.
Procedure: For immunohistochemistry, mice were anesthetized using isoflurane and perfused intracardially using paraformaldehyde (4% PFA), brain and weights were recorded. Brain specimens from fixed animals were frozen in OCT and sectioned using a cryostat.
Frozen tissue sections embedded in OCT were analyzed by immunohistochemistry. The left side of the brain slice contains ischemic tissue due to the MCAO while the right hemisphere acts as a control without ischemia. Staining with these antibodies provide biomarkers for both ischemic area and ROCK2 activation.

ROCK2 [8] = target: T1, ROCK2; details: for Fold-Difference: ROCK1 KD vs ROCK2 KD
Procedure: (§3) The assay is performed by combining the DNA-tagged kinase, immobilized ligand, and a test compound. The ability of the test compound to compete with the immobilized ligand is measured via quantitative PCR of the DNA tag.
(§4) The highest concentration tested was 30 μM.

ROCK1 [9] = target: T2, ROCK1 (Homo sapiens (Human), UniProt Q13464); assay: Direct filter-binding radiometric kinase assay, IC50 determination; format: biochemical
Procedure: Variations in ATP concentrations were tested to better understand potential selectivity in ischemic and diseased tissue where ATP concentrations may be low and impact selectivity.
[…] Both services use a direct filter-binding, radiometric kinase assay with slight variation in protocol.
The top concentration tested was 100 μM for both services. Test compounds were prepared in 100% DMSO at 50× final test concentration and were diluted to 1× in the assay with a final DMSO concentration of 2%.
For one assay, the substrate […] (SEQ ID NO:1) (30 μM) was mixed with reaction buffer (Table 4) and the kinase domain from either the ROCK1 or ROCK2 (as indicated in Table 4). Next, the compounds (in DMSO) were delivered into the mixture via acoustic mixing technology (Echo550, nanoliter range) (SelectScience, Waltham, Mass.), and incubated at RT for 20 min. […] Reactions were then spotted onto P81 ion exchange paper followed by scintillation counting.
The reaction was stopped by the addition of 3% phosphoric acid and 10 μL of the reaction was spotted onto P30 filtermat, washed 3 times in 75 mM phosphoric acid and once in methanol prior to scintillation counting.

ROCK1 [10] = target: T2, ROCK1
Procedure: as §3, §4

[11] = system: human umbilical vein endothelial cells (HUVECs); assay: LPA-stimulated HUVECs, actin stress fibers and vinculin; format: cell-based; details: 50 μM, 20 μM LPA 10 min
Procedure: Primary HUVEC cells (Gibco®, Thermo Fisher, Waltham, Mass.) are cultured in endothelial growth media (Gibco® Medium 200 basal media Cat supplemented with Gibco® Large Vessel Endothelial Supplement). HUVECs between passage 1 and 4 are used for all experiments. HUVECs are cultured on poly-D-lysine-treated glass coverslips (Corning, Corning, N.Y.) coated with 70 μg/ml rat collagen I (Corning, Corning, N.Y.) and cultured for 4 d until a confluent monolayer of cells is established. […] Then HUVECs are stimulated with 20 μM LPA for 10 min and subsequently fixed using 4% paraformaldehyde (PFA)/sucrose solution.
After PFA fixation, cells on coverslips are permeabilized with TBS-Triton-X100 (0.1%), blocked with 1% bovine serum albumin and incubated with mouse vinculin primary antibody (Table 16). Vinculin immunolabelling is visualized using a secondary anti-mouse fluorescent antibody (Table 16). Actin cytoskeleton is visualized by staining with fluorescent phalloidin (Table 16), a compound that specifically binds F-actin filaments. Epifluorescence microscopy is used to acquire images of Immuno- and phalloidin fluorescence, respectively.

hBMVEC monolayer = assay: LPA-treated hBMVECs, endothelial monolayer integrity; format: cell-based, human; details: 1 μM or 10 μM, 20 μM LPA, Example 16, present tense
Procedure: as §2
To examine hBMVECs monolayer integrity, cells are plated on PDL-coated coverslips (Corning) coated with Fibronectin, Collagen-1 and gelatin. 50,000 cells are seeded on each coverslip situated in a 24-well plate. Cells are grown for 3 days in ENDO-growth media (Neuromics) at 37° C./5% CO2. […] The medium is exchanged for ENDO basal media supplemented with 1% HSA, 20 μM of LPA (Santa Cruz Biotech; Santa Cruz, Calif.) and the appropriate amount of compound being tested. After 60 min, cells were fixed with 4% paraformaldehyde and stained for actin-phalloidin (ThermoFisher) and V-Cadherin (Cell Signaling), and then were mounted on microscope slides. Coverslips were imaged by fluorescence microscopy and the cell-free holes in the monolayer are measured using Image J. 3.

HUVEC monolayer = assay: LPA-treated HUVECs, endothelial monolayer integrity; format: cell-based, human; details: 1 μM or 10 μM, 20 μM LPA 60 min
Procedure: as §1
To examine HUVEC monolayer integrity, cells were plated on PDL-coated coverslips (Corning) coated with fibronectin, collagen-1 and gelatin. 50,000 cells were seeded on each coverslip situated in a 24-well plate. Cells were grown for 3 days at 37° C./5% CO2. […] The medium was exchanged by Medium 200 supplemented with 0.1% HSA and 20 μM of LPA (Santa Cruz) and incubated for 60 min.
After LPA stimulation, cells were fixed with 4% paraformaldehyde and stained for actin-phalloidin (ThermoFisher, Waltham, Mass.) and V-Cadherin (Cell Signaling, Danvers, Mass.) and mounted on microscope slides. Coverslips were imaged by fluorescence microscopy and the cell free holes in the monolayer are measured using Image J (freeware; https://imagej.nih.gov/ij/).

[12] = read-out: Compound IC50 ROCK2 10 μM ATP, CRO Eurofins, 10 μM ATP
[13] = read-out: Compound IC50 ROCK1 10 μM ATP, CRO Eurofins, 10 μM ATP

T2 sequence (Q13464 2-1354 limits assumed): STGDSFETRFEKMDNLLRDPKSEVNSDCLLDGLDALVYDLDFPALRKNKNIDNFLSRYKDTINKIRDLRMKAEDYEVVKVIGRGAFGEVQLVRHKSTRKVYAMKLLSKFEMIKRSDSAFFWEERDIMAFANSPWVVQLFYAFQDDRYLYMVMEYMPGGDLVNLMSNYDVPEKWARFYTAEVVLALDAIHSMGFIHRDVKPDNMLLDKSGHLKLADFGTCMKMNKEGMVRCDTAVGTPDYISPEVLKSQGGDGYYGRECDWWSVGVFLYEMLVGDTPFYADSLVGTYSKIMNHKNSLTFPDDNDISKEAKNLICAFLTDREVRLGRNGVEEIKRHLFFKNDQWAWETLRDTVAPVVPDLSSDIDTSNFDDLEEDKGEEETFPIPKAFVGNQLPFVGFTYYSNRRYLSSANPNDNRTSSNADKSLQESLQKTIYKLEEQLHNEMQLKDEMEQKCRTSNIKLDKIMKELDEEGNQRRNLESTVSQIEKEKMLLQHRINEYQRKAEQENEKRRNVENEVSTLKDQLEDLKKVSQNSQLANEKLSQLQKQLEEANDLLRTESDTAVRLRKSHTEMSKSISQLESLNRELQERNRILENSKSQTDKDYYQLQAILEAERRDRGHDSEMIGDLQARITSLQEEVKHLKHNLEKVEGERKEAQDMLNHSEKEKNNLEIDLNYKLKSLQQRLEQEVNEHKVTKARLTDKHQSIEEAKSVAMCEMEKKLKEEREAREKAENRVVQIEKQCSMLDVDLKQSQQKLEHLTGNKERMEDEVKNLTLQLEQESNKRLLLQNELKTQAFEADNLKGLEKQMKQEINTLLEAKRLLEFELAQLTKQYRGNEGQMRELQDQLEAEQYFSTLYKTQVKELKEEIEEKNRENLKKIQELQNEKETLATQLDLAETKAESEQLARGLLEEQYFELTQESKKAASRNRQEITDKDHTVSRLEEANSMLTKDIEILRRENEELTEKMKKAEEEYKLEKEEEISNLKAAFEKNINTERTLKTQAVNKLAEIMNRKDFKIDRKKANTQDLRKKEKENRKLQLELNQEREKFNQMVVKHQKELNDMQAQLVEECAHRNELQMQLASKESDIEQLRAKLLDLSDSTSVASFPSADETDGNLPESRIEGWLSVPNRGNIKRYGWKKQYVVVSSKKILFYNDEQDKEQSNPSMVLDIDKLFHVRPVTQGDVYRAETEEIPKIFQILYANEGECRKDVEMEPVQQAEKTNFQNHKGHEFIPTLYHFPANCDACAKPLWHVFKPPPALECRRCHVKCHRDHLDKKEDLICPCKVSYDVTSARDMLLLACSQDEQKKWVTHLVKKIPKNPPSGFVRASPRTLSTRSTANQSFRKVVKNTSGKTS
T1 sequence (O75116 whole entry, species assumed): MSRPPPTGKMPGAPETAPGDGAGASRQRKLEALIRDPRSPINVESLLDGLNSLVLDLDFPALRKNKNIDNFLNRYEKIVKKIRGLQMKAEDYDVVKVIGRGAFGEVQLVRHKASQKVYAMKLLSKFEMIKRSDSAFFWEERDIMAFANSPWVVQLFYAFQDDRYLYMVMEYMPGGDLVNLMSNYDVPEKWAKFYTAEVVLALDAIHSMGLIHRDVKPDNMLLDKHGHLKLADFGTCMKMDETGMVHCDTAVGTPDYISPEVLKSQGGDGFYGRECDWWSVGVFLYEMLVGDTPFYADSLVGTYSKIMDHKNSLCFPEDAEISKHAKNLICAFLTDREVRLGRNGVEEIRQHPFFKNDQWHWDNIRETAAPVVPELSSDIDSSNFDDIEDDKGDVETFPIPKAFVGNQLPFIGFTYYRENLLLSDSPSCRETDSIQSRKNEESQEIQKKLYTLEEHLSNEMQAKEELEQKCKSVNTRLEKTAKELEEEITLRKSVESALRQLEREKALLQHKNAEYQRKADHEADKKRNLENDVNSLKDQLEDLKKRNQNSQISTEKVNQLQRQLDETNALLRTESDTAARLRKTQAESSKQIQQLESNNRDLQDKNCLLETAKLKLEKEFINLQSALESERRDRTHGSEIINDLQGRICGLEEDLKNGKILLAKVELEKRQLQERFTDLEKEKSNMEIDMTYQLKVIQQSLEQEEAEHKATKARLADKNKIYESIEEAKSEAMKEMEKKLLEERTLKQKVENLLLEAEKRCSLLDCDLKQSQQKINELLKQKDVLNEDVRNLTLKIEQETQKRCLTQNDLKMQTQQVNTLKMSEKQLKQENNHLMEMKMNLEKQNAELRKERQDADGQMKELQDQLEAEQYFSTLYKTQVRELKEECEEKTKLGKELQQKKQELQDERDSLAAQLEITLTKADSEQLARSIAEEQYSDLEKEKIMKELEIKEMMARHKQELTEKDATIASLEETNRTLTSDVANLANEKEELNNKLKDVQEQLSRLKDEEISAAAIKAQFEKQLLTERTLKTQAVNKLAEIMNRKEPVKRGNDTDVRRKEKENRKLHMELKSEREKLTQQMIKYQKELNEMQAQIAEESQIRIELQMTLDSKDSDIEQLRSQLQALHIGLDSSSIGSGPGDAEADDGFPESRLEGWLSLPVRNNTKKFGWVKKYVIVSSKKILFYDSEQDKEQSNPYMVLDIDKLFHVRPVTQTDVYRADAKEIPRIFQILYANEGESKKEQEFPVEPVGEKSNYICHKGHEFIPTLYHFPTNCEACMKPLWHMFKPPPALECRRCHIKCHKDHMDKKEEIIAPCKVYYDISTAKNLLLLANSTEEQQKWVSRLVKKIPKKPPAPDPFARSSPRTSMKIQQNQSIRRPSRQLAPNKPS

For Cc1ccc(C(=O)OCc2ccc([C@@H](CN)C(=O)Nc3ccc4cnccc4c3)cc2)c(C)c1 [AR-13324], the “% Inhibition of Neurotransmitter Transporter Activity, NET” value [1] is listed as 96% and the “% Inhibition of Neurotransmitter Transporter Activity, SERT” value [2] is listed as 94%.
In the case of C[C@@H](N)C1CCN(S(=O)(=O)c2cccc3c[n+]([O-])ccc23)CC1 [N-oxide-BA-1049 (R)], the “effect on MLC2 diphosphorylation (pMLC2 T18/S19)” value (from here on “effect on MLC2 diphosphorylation”) [3] is reported as “did not show such an effect”, the “effect on MLC2 diphosphorylation” value [4] is reported as “do not show such an effect” and the “inhibitory activity for ROCK2 relative to parent BA-1049 (R)” value (ROCK2 [5]) is reported as “does not exhibit any inhibitory activity”.
With CC(N)C1CCN(S(=O)(=O)c2cccc3cnccc23)CC1 (racemic) [BA-1049] the “ratio of phospho-cofilin expression left (MCAO) versus right hemisphere” value [6] was “strongly reduced”, the Fold-Difference (ROCK2 [7]; CRO Eurofins, 10 μM ATP) was 12.4 and the Fold-Difference (ROCK2 [7]; CRO Reaction Biology, 10 μM ATP, listed as Racemic BA-1049: Lot 1) was 2.1. It also gave a Fold-Difference (ROCK2 [7]; CRO Reaction Biology, 10 μM ATP, listed as Racemic BA-1049: Lot 2) of 2.8, a Fold-Difference (ROCK2 [7]; CRO Upstate Cell Signaling, 10 μM ATP) of 12.8 and an IC50 (ROCK2 [7]; [12]) of 550 nM. It also gave an IC50 (ROCK2 [7]; read-out: Compound IC50 ROCK2 10 μM ATP, CRO Reaction Biology, 10 μM ATP, listed as Racemic BA-1049: Lot 1) of 600 nM, an IC50 (ROCK2 [7]; read-out: Compound IC50 ROCK2 10 μM ATP, CRO Reaction Biology, 10 μM ATP, listed as Racemic BA-1049: Lot 2) of 1020 nM and an IC50 (ROCK2 [7]; read-out: Compound IC50 ROCK2 10 μM ATP, CRO Upstate Cell Signaling, 10 μM ATP) of 800 nM. The “phospho-MLC2 (Ser19) staining of small blood vessels of insular cortex” value (phospho-MLC2 (Ser19)) was “even more effective than Fasudil at reducing small vessel staining”, the Fold-Difference (ROCK2 [8]; Table 5, listed as Racemic BA-1049: Lot 1) was 1.2 and the Fold-Difference (ROCK2 [8]; Table 5, listed as Racemic BA-1049: Lot 2) was 1.3. The Kd (ROCK2 [8]; read-out: ROCK2 KD, average of duplicate determinations, Table 5, listed as Racemic BA-1049: Lot 1) was 46 nM, the Kd (ROCK2 [8]; read-out: ROCK2 KD, average of duplicate determinations, Table 5, listed as Racemic BA-1049: Lot 2) was 66 nM and the IC50 (ROCK1 [9]; [13]) was 6800 nM. The IC50 (ROCK1 [9]; read-out: Compound IC50 ROCK1 10 μM ATP, CRO Reaction Biology, 10 μM ATP, listed as Racemic BA-1049: Lot 1) was 1280 nM, the IC50 (ROCK1 [9]; read-out: Compound IC50 ROCK1 10 μM ATP, CRO Reaction Biology, 10 μM ATP, listed as Racemic BA-1049: Lot 2) was 1020 nM and the IC50 (ROCK1 [9]; read-out: Compound IC50 ROCK1 10 μM ATP, CRO Upstate Cell Signaling, 10 μM ATP) was 10200 nM. For the same compound, the Kd (ROCK1 [10]; read-out: ROCK1 KD, average of duplicate determinations, Table 5, listed as Racemic BA-1049: Lot 1) was 54 nM and the Kd (ROCK1 [10]; read-out: ROCK1 KD, average of duplicate determinations, Table 5, listed as Racemic BA-1049: Lot 2) was 89 nM.
For O=S(=O)(c1cccc2cnccc12)N1CCCNCC1 [Fasudil], the “actin stress fiber formation upon LPA stimulation” value [11] was “prevents such formation of stress fiber”, the “vinculin immunofluorescence, integrity of HUVEC monolayer upon LPA stimulation” value [11] was “upregulation of vinculin-positive focal adhesion complexes associated with a decreased cell confluency” and the “phospho-MLC2 (Ser19) staining of small blood vessels of insular cortex” value (phospho-MLC2 (Ser19)) was “reduces the amount of staining”.
Compound C[C@H](N)C1CCN(S(=O)(=O)c2cccc3cnccc23)CC1 has an IC50 (ROCK2 [7]; 10 μM ATP, Table 2, read-out: Compound IC50 ROCK2) of 730 nM, a Fold-Difference (ROCK2 [7]; CRO Eurofins, 10 μM ATP) of 14.1 and a Fold-Difference (ROCK2 [7]; CRO Reaction Biology, 10 μM ATP) of 2.0. For the same compound, the Fold-Difference (ROCK2 [7]; ROCK1 (70 μM ATP) vs ROCK2 (15 μM ATP) IC50) was 57.9, the Fold-Difference (ROCK2 [7]; ROCK1 vs ROCK2 IC50, 10 μM ATP) was 14.1 and the IC50 (ROCK2 [7]; [12]) was 730 nM. For the same compound, the IC50 (ROCK2 [7]; read-out: Compound IC50 ROCK2 10 μM ATP, CRO Reaction Biology, 10 μM ATP) was 720 nM, the IC50 (ROCK2 [7]; read-out: Compound IC50 ROCK2 15 μM ATP, Km ATP 15 μM, Table 3) was 1000 nM and the IC50 (ROCK2 [7]; read-out: Compound IC50 ROCK2 15 μM ATP, Km ATP 15 μM, Table 7) was 1000 nM. For the same compound, the “monolayer integrity / Rho/ROCK activation after LPA” value (hBMVEC monolayer) was “neither concentration reverses the effect of LPA”, the “monolayer integrity after LPA” value (HUVEC monolayer) was “neither concentration reverses the effect of LPA” and the Fold-Difference (ROCK2 [8]; Table 5) was 0.9. The “Fractional Selectivity for ROCK2” value (ROCK2 [8]; ratio of dissociation constants ROCK1/ROCK2) was 0.92, the Kd (ROCK2 [8]; read-out: ROCK2 KD, average of duplicate determinations, Table 5) was 160 nM and the Kd (ROCK2 [8]; read-out: ROCK2 Kd, Table 1) was 130 nM. For the same compound, the “effect on MLC2 diphosphorylation” value [3] was “reduce MLC2 diphosphorylation”, the IC50 (ROCK1 [9]; 10 μM ATP, Table 2, read-out: Compound IC50 ROCK1) was 10200 nM and the IC50 (ROCK1 [9]; [13]) was 10200 nM. For the same compound, the IC50 (ROCK1 [9]; read-out: Compound IC50 ROCK1 10 μM ATP, CRO Reaction Biology, 10 μM ATP) was 1440 nM, the IC50 (ROCK1 [9]; read-out: Compound IC50 ROCK1 70 μM ATP, Km ATP 70 μM, Table 3) was 57900 nM and the IC50 (ROCK1 [9]; read-out: Compound IC50 ROCK1 70 μM ATP, Km ATP 70 μM, Table 7) was 57900 nM. For the same compound, the “effect on MLC2 diphosphorylation” value [4] was “reduce MLC2 diphosphorylation”, the Kd (ROCK1 [10]; read-out: ROCK1 KD, average of duplicate determinations, Table 5) was 155 nM and the Kd (ROCK1 [10]; read-out: ROCK1 Kd, Table 1) was 120 nM.
